For series [1] the following is noted: for Amount in urine collected for 10 h after consumption of cooked beef: Mean ± SD of 3 independent measurements; for % Dose in urine collected for 10 h after consumption of cooked beef: metabolites as % of dose of parent MeIQx or PhIP.
For series [2] the following is noted: cited from earlier work.
Series [3] has as its system P450 1A2. Conditions: subjects given furafylline prior to cooked beef; cited from earlier work.
For series [4] the following is noted: 14C-PhIP; cited from earlier work.
The test system of series [5] is P450 1A2. The following applies: human hepatocytes pretreated with furafylline; cited from earlier work.
Series [6] relates to human liver UGTs. Conditions: human liver microsomes fortified with UDPGA; cited from earlier work.
Series [7] in a line: Acid hydrolysis of conjugates. Type of series: physicochemical. Conditions: 50% (v/v) glacial acetic acid or 1 N HCl, 80 °C for 8 h.

Where two headings read alike, the source gives them in different places.

As a reminder, the pKa is the negative logarithm of the acid dissociation constant. Turning to `Cn1c(N)nc2ncc(-c3ccccc3)cc21` [PhIP, 2-amino-1-methyl-6-phenylimidazo[4,5-b]pyridine], the “Amount in urine collected for 10 h after consumption of cooked beef” value in series [1] (Subject S-001) is reported as 37.1 ± 3.3 ng; in series [1] (Subject S-003), 6.5 ± 1.1 ng; in series [1] (Subject S-005), 11.4 ± 0.9 ng; in series [1] (Subject S-008), 9.5 ± 0.6 ng; in series [1] (Subject S-009) it was 18.5 ± 1.6 ng; in series [1] (Subject S-012), 17.0 ± 0.7 ng. Further, the “Amount in urine collected for 10 h after consumption of cooked beef” value came to 14.1 ± 1.2 ng in series [1] (Subject S-013), 8.9 ± 0.6 ng in series [1] (Subject S-014), 8.2 ± 1.0 ng in series [1] (Subject S-015) and 18.9 ± 1.6 ng in series [1] (Subject S-020). Besides, the “% Dose in urine collected for 10 h after consumption of cooked beef” value in series [1] (Subject S-001) turned out to be 0.8 % Dose; in series [1] (Subject S-003) it was 0.1 % Dose; in series [1] (Subject S-005), 0.2 % Dose; in series [1] (Subject S-008), 0.2 % Dose; in series [1] (Subject S-009) it was 0.4 % Dose; in series [1] (Subject S-012), 0.3 % Dose. For the same compound, the “% Dose in urine collected for 10 h after consumption of cooked beef” value in series [1] (Subject S-013) is given as 0.3 % Dose; in series [1] (Subject S-014), 0.2 % Dose; in series [1] (Subject S-015), 0.2 % Dose; in series [1] (Subject S-020) it was 0.4 % Dose. Also, the pKa in series [2] is 5.65. Further, in series [3], the “Share of elimination accounted for by P450 1A2” value was 70%. The “Proportion of the dose eliminated in urine within 24 h as isomeric HON-PhIP-N-glucuronide conjugates” value in series [4] is given as “approximately 50%”.

`Cc1nc2c([nH]1)c(=O)n(C)c(=O)n2Cc1ccco1` [furafylline]: the “Inhibition of formation of 8-CH2OH-IQx, IQx-8-COOH and glucuronide conjugates of HONH-MeIQx and HONH-PhIP” value in series [5] is given as “inhibited to a similar degree”.

Regarding `Cn1c(=N)n([C@@H]2O[C@H](C(=O)O)[C@@H](O)[C@H](O)[C@H]2O)c2ncc(-c3ccccc3)cc21` [PhIP-N3-Gl, N3-(ß-1-glucosidurony1)-2-amino-1-methy1-6-phenylimidazo[4,5-b]pyridine], in series [1] (urine after meat consumption, LOQ ~50 pg/mL), the “Amount present in urine samples” value is recorded as “below the LOQ”. In addition, in series [6], the “Amount formed relative to PhIP-N^2-Gl” value is reported as 10 fold. In series [7], the “Behaviour under acid hydrolysis conditions” value was “stable” and the “Proportion of the conjugate that underwent hydrolysis” value is listed as < 5%.

The values are drawn from publication PMC3196554 (Chemical research in toxicology, 2010).
